Molecules are shown by their SMILES. Residues, ends and D or L forms follow the SMILES beside them. *: point of attachment. Octanoyl = CCCCCCCC(=O)*

Assay [1] concerns the target T1, Growth hormone secretagogue receptor type 1 (Homo sapiens, UniProt Q92847). Kind of assay: Binding affinity towards human Growth hormone secretagogue receptor type 1 using competitive binding assay with radiolabeled [35S]-MK-0677 expressed as IC50.
In assay [2] the target is T1, Growth hormone secretagogue receptor type 1. Kind of assay: Functional potency measured as intracellular calcium elevation in Hek-293 cells expressing hGHSR1a. Format: cell-based, HEK293.

T1 sequence (Q92847 whole entry): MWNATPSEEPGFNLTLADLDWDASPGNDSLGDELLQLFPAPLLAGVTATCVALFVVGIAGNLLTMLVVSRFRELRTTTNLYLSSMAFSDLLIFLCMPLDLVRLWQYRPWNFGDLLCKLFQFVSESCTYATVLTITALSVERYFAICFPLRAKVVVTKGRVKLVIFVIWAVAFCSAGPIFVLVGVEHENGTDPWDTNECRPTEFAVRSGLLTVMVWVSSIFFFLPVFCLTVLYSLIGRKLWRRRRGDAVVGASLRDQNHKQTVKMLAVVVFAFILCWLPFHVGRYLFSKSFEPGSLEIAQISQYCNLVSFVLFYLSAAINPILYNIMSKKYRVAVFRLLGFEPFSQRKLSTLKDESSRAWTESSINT

As to `CS(=O)(=O)N1CC2(CCN(C(=O)[C@@H](COCc3ccccc3)NC(=O)[C@@H](N)CO)CC2)c2ccccc21`, the IC50 (as a rule, the midpoint of a concentration-inhibition curve) in assay [1] was 209 nM. Moreover, the EC50 – broadly, the midpoint of the concentration-response curve – in assay [2] turned out to be 69.2 nM.

The molecule `CS(=O)(=O)N1CC2(CCN(C(=O)[C@@H](COCc3ccccc3)NC(=O)[C@H](CO)NC(=O)CN)CC2)c2ccccc21` came in with an IC50 in assay [1] of 36.2 nM. Moreover, the EC50 in assay [2] was found to be 7.95 nM.

Molecule `CCCCCCCC(=O)OC[C@H](NC(=O)[C@H](CO)NC(=O)CN)C(=O)N1CCC2(CC1)CN(S(C)(=O)=O)c1ccccc12` came in with an IC50 in assay [1] of 2670 nM. Further, in assay [2], the concentration for a half-maximal effect (EC50) came to 448 nM.

Take `CCCCCCCC(=O)OC[C@H](NC(=O)CN)C(=O)N[C@@H](CO)C(=O)N[C@@H](Cc1ccccc1)C(=O)O` (H-GS(Octanoyl)SF-OH): the IC50 in assay [1] worked out at 889 nM. Further, in assay [2], the EC50 worked out at 72 nM.

In assay [1], `CCCCCCCC(=O)OC[C@@H](NC(=O)[C@H](CO)NC(=O)CN)C(=O)N1CCC2(CC1)CN(S(C)(=O)=O)c1ccccc12` came in with an IC50 of 128 nM. Further, in assay [2], the EC50 amounted to 68.2 nM.

With `CCCCCCCC(=O)OC[C@H](NC(=O)C(C)(C)N)C(=O)N1CCC2(CC1)CN(S(C)(=O)=O)c1ccccc12`, the IC50 in assay [1] was found to be 590 nM. Moreover, in assay [2], the EC50 was 378 nM.

In assay [1], `CCCCCCCC(=O)OC[C@@H](NC(=O)[C@@H](N)CO)C(=O)N1CCC2(CC1)CN(S(C)(=O)=O)c1ccccc12` showed an IC50 of 829 nM. For the same molecule, the EC50 in assay [2] turned out to be 432 nM.

`CCCCCCCC(=O)OC[C@@H](NC(=O)C(C)(C)N)C(=O)N1CCC2(CC1)CN(S(C)(=O)=O)c1ccccc12`: the IC50 in assay [1] was found to be 8.12 nM. The EC50 in assay [2] was 19.6 nM.
